Measurements as given in patent publication US20220202801A1, “USE OF COMPOUND IN PREPARATION OF DRUG FOR TREATING ATHEROSCLEROSIS” (GenEros Biopharma Ltd., priority 2019, published 2022).

Tests used:
[1] = system: atherosclerotic lesions in ApoE knockout mice; experiment: Aortic HE and oil red O staining, atherosclerotic lesion scores (Example 1); assay type: in vivo; conditions: for formation of arterial plaque (pathological results): medium doses, preventive treatment; for Mild n (number of animal cases with mild lesions) / Moderate n (number of animal cases with moderate lesions) / No lesion n (number of animal cases) / Severe n (number of animal cases with severe lesions): of 8 animals; for animals that had atherosclerosis (histological observation): of 8 aortas examined; for effect on atherosclerotic lesions compared with the statin group: overall, aortic pathology Example 1
Description: (§1) Methods: SPF grade C57BL/6 ApoE −/−model mice were provided by Guangdong Medical Experimental Animal Center, laboratory animal production license No. SOCK (Guangdong) 2013-0002. Laboratory animal quality certificate number: 44007200048196). Mice were half male and half female, aged 8 to 12 weeks, and 72 animals in total. After four weeks of housing in a SPF-level animal facility, animals with less body weights were disposed. A total of 64 animals were randomly divided into 8 groups, 8 in each group, fed with 10% high-fat food, and received with different treatments. Animals were observed and administered with the medicines by gavage once daily. The body weights were measured once a week and continued for 58 days. […] The test sample was dissolved in dimethyl sulfoxide solution and prepared with 30% PEG300.
(§2) After blood collection, the animals were sacrificed, and the aortic arch together with the heart and thoracic aorta were fixed with neutral formaldehyde and subject to pathological examination. The abdominal aorta was collected and quick-frozen in liquid nitrogen, and stored at −80° C.
a) HE staining: aortic arch was sliced and HE stained. The plaques were observed under optical microscope.
b) Oil red O staining: aortic arch was sliced and oil red O stained. The plaques were observed under optical microscope.

[2] = system: VCAM-1; experiment: Immunohistochemistry of aortic wall, VCAM-1; assay type: in vivo, mice; conditions: for aorta (VCAM-1) signal expression in blood vessels: IHC-P×400, single animal micrograph; for VCAM-1 average optical density: aortic wall
Description: as §1, §2
(§3) c) Immunohistochemistry: The thoracic aorta was sliced and detected by immunohistochemistry for the expression of CD68, intercellular adhesion molecule-1 (ICAM-1), and vascular cell adhesion Molecule-1 (VCAM-1).

[3] = system: ICAM-1; experiment: Immunohistochemistry of aortic wall, ICAM-1; assay type: in vivo, mice; conditions: for aorta (ICAM-1) signal expression in blood vessels: IHC-P×400, single animal micrograph; for ICAM-1 average optical density: aortic wall
Description: as §1, §2, §3

[4] = system: CD68; experiment: Immunohistochemistry of aortic wall, CD68; assay type: in vivo, mice; conditions: for aorta (CD68) signal expression in blood vessels: IHC-P×400, single animal micrograph; for CD68 average optical density: aortic wall
Description: as §1, §2, §3

[5] = system: ApoE knockout mice; experiment: Blood lipid metabolism TG, TCHO, HDL-c, LDL-c (Example 2); assay type: in vivo
Description: Methods: A total of 130 SPF grade C57BL/6 ApoE −/− model male mice aged 8 weeks were purchased from Charles River Laboratories (Beijing, China) (animal license number: SCXK (Beijing) 2016-0001, animal qualification certificate No.: 11400700331337). After one week of acclimatization in a SPF-grade animal facility, the animals with less weights were discarded and the rest was randomly divided into 11 groups, with 8 animals in each group. Except for the healthy control group, the rest were fed with 10% high-fat food (the first day of the high-fat diet was recorded as D1). Starting from the 8th week of the high-fat diet, each group of animals was orally given solvents or corresponding drugs, and the volume of administration was 10 ml/kg, once a day for 8 weeks. Animals were observed and administered by gavage once a day and the body weight were measured once a week for 56 days. […] The store solution of the test samples was dissolved in dimethyl sulfoxide solution and prepared with 30% PEG300.
At the end of the experiment, the animals were euthanized by inhalation of carbon dioxide. Blood was taken from the heart, and centrifuged at 3000 r/min at a low temperature centrifuge for 10 min to separate the serum. The levels of total cholesterol TC, triglyceride TG, high-density lipoprotein HDL-C, and low-density lipoprotein LDL-C were measured, and the remaining serum was stored in a refrigerator at −80° C.
Before the start of the experiment, animal blood samples were analyzed for blood lipid metabolism, including conventional triglyceride (TG), total cholesterol (TCHO), high-density lipoprotein (HDL-c) and low-density lipoprotein (LDL-c). After high-fat or ordinary food feeding for 8 weeks, the blood lipid levels were measured again. After the drug treatment was started, blood lipid measurements were performed every four weeks until the end of the experiment.

[6] = score 0-3 per Table 8, 2 mg/kg body weight
[7] = score 0-3 per Table 8, 5 mg/kg body weight
[8] = 5 mg/kg gavage QD, listed as Nib1, 5 mg/kg
[9] = 5 mg/kg gavage QD, listed as sample A, 5 mg/kg
[10] = 10 mg/kg gavage QD, listed as sample A, 10 mg/kg
[11] = 2 mg/kg gavage QD, listed as Nib2, 2 mg/kg

For `O=c1[nH]c2ccccc2n1C1CCN(CCCC(c2ccc(F)cc2)c2ccc(F)cc2)CC1` [Sample A], the “formation of arterial plaque (pathological results)” value [1] was “could delay the formation of arterial plaque in ApoE knockout mice to a certain extent”, the “Mild n (number of animal cases with mild lesions)” value (“Mild n” for short) ([1]; 2 mg/kg body weight) was 4 and the “Moderate n (number of animal cases with moderate lesions)” value (“Moderate n” for short) ([1]; 2 mg/kg body weight) was 0. For the same compound, the “No lesion n (number of animal cases)” value ([1]; 2 mg/kg body weight) was 1, the “Severe n (number of animal cases with severe lesions)” value (“Severe n” for short) ([1]; 2 mg/kg body weight) was 3 and the “Mild n” value ([1]; 5 mg/kg body weight) was 5. The “Moderate n” value ([1]; 5 mg/kg body weight) was 0, the “No lesion n (number of animal cases)” value ([1]; 5 mg/kg body weight) was 3 and the “Severe n” value ([1]; 5 mg/kg body weight) was 0. The “Mild n” value ([1]; 10 mg/kg body weight) was 1, the “Moderate n” value ([1]; 10 mg/kg body weight) was 2 and the “No lesion n (number of animal cases)” value ([1]; 10 mg/kg body weight) was 2. For the same compound, the “Severe n” value ([1]; 10 mg/kg body weight) was 3, the “animals that had atherosclerosis (histological observation)” value ([1]; 2 mg/kg) was 7 cases and the “animals that had atherosclerosis (histological observation)” value ([1]; 5 mg/kg) was 5 cases. For the same compound, the “animals that had atherosclerosis (histological observation)” value ([1]; 10 mg/kg) was 6 cases, the “effect on atherosclerotic lesions compared with the statin group” value [1] was “equivalent to or better than that of the statin group” and the “Scores (atherosclerotic lesion score, average of the group)” value (“Scores” for short) [1, 6] was 1.62 ± 1.19. The “Scores” value [1, 7] was 0.62 ± 0.52, the “Scores” value ([1]; score 0-3 per Table 8, 5 mg/kg body weight, listed as sample A) was “lower than the model control group” and the “Scores” value ([1]; score 0-3 per Table 8, 10 mg/kg body weight) was 1.75 ± 1.28. The “aorta (VCAM-1) signal expression in blood vessels” value (shortened to “aorta (VCAM-1) signal expression”) ([2]; 2 mg/kg) was “low to medium”, the “aorta (VCAM-1) signal expression” value ([2]; 5 mg/kg) was “low to medium” and the “aorta (VCAM-1) signal expression” value ([2]; 10 mg/kg) was “low to medium”. The “VCAM-1 average optical density” value ([2]; 2 mg/kg gavage QD) was 1.41 ± 0.34 ×10^−2, the “VCAM-1 average optical density” value ([2]; 5 mg/kg gavage QD, 5 mg/kg) was 0.77 ± 0.46 ×10^−2 and the “VCAM-1 average optical density” value [2, 8] was “reduced expression”. The “VCAM-1 average optical density” value [2, 9] was “lower than the model control group”, the “VCAM-1 average optical density” value ([2]; 10 mg/kg gavage QD, 10 mg/kg) was 0.49 ± 0.51 ×10^−2 and the “VCAM-1 average optical density” value [2, 10] was “lower than the model control group”. The “aorta (ICAM-1) signal expression in blood vessels” value (from here on “aorta (ICAM-1) signal expression”) ([3]; 2 mg/kg) was “low to medium”, the “aorta (ICAM-1) signal expression” value ([3]; 5 mg/kg) was “low to medium” and the “aorta (ICAM-1) signal expression” value ([3]; 10 mg/kg) was “low to medium”. For the same compound, the “ICAM-1 average optical density” value ([3]; 2 mg/kg gavage QD, 2 mg/kg) was 2.11 ± 1.53 ×10^−2, the “ICAM-1 average optical density” value ([3]; 2 mg/kg gavage QD, listed as sample A, 2 mg/kg) was “lower than the model control group” and the “ICAM-1 average optical density” value ([3]; 5 mg/kg gavage QD, 5 mg/kg) was 2.31 ± 1.16 ×10^−2. For the same compound, the “ICAM-1 average optical density” value [3, 8] was “reduced expression”, the “ICAM-1 average optical density” value [3, 9] was “lower than the model control group” and the “ICAM-1 average optical density” value ([3]; 10 mg/kg gavage QD, 10 mg/kg) was 1.75 ± 1.46 ×10^−2. For the same compound, the “ICAM-1 average optical density” value [3, 10] was “lower than the model control group”, the “aorta (CD68) signal expression in blood vessels” value (“aorta (CD68) signal expression” for short) ([4]; 2 mg/kg) was “low to medium” and the “aorta (CD68) signal expression” value ([4]; 5 mg/kg) was “low to medium”. For the same compound, the “aorta (CD68) signal expression” value ([4]; 10 mg/kg) was “low to medium”, the “CD68 average optical density” value ([4]; 2 mg/kg gavage QD) was 2.78 ± 2.01 ×10^−2 and the “CD68 average optical density” value ([4]; 5 mg/kg gavage QD) was 1.39 ± 0.67 ×10^−2. The “CD68 average optical density” value ([4]; 10 mg/kg gavage QD) was 1.86 ± 1.60 ×10^−2, the “effect on high-density lipoprotein (HDL-c) level compared with the vehicle group” value [5] was “significantly reduce” and the “effect on low-density lipoprotein (LDL-c) level compared with the vehicle group” value [5] was “significantly reduce”. The “effect on total cholesterol (TCHO) level compared with the vehicle group” value [5] was “significantly reduce” and the “effect on triglyceride (TG) level compared with the vehicle group” value [5] was “significantly reduce”.
With `O=C(N/N=C/c1coc2ccccc2c1=O)c1cccnc1` [Sample B] the “formation of arterial plaque (pathological results)” value [1] was “could delay the formation of arterial plaque in ApoE knockout mice to a certain extent”, the “Mild n” value ([1]; 1 mg/kg body weight) was 2 and the “Moderate n” value ([1]; 1 mg/kg body weight) was 2. The “No lesion n (number of animal cases)” value ([1]; 1 mg/kg body weight) was 1, the “Severe n” value ([1]; 1 mg/kg body weight) was 3 and the “Mild n” value ([1]; 2 mg/kg body weight) was 3. The “Moderate n” value ([1]; 2 mg/kg body weight) was 1, the “No lesion n (number of animal cases)” value ([1]; 2 mg/kg body weight) was 4 and the “Severe n” value ([1]; 2 mg/kg body weight) was 0. For the same compound, the “Mild n” value ([1]; 5 mg/kg body weight) was 3, the “Moderate n” value ([1]; 5 mg/kg body weight) was 2 and the “No lesion n (number of animal cases)” value ([1]; 5 mg/kg body weight) was 1. The “Severe n” value ([1]; 5 mg/kg body weight) was 2, the “animals that had atherosclerosis (histological observation)” value ([1]; 1 mg/kg) was 7 cases and the “animals that had atherosclerosis (histological observation)” value ([1]; 2 mg/kg) was 4 cases. For the same compound, the “animals that had atherosclerosis (histological observation)” value ([1]; 5 mg/kg) was 7 cases, the “effect on atherosclerotic lesions compared with the statin group” value [1] was “equivalent to or better than that of the statin group” and the “Scores” value ([1]; score 0-3 per Table 8, 1 mg/kg body weight) was 1.88 ± 1.13. For the same compound, the “Scores” value [1, 6] was 0.62 ± 0.74, the “Scores” value ([1]; score 0-3 per Table 8, 2 mg/kg body weight, listed as sample B) was “lower than the model control group” and the “Scores” value [1, 7] was 1.62 ± 1.06. For the same compound, the “aorta (VCAM-1) signal expression” value ([2]; 1 mg/kg) was “low to medium”, the “aorta (VCAM-1) signal expression” value ([2]; 2 mg/kg) was “low to medium” and the “aorta (VCAM-1) signal expression” value ([2]; 5 mg/kg) was “low to medium”. The “VCAM-1 average optical density” value ([2]; 1 mg/kg gavage QD) was 1.24 ± 0.99 ×10^−2, the “VCAM-1 average optical density” value ([2]; 2 mg/kg gavage QD, 2 mg/kg) was 1.54 ± 1.11 ×10^−2 and the “VCAM-1 average optical density” value [2, 11] was “reduced expression”. The “VCAM-1 average optical density” value ([2]; 5 mg/kg gavage QD) was 1.69 ± 0.85 ×10^−2, the “aorta (ICAM-1) signal expression” value ([3]; 1 mg/kg) was “low to medium” and the “aorta (ICAM-1) signal expression” value ([3]; 2 mg/kg) was “low to medium”. The “aorta (ICAM-1) signal expression” value ([3]; 5 mg/kg) was “low to medium”, the “ICAM-1 average optical density” value ([3]; 1 mg/kg gavage QD) was 2.44 ± 1.19 ×10^−2 and the “ICAM-1 average optical density” value ([3]; 2 mg/kg gavage QD, 2 mg/kg) was 1.31 ± 1.40 ×10^−2. The “ICAM-1 average optical density” value [3, 11] was “reduced expression”, the “ICAM-1 average optical density” value ([3]; 2 mg/kg gavage QD, listed as sample B, 2 mg/kg) was “lower than the model control group” and the “ICAM-1 average optical density” value ([3]; 5 mg/kg gavage QD) was 3.98 ± 1.64 ×10^−2. The “aorta (CD68) signal expression” value ([4]; 1 mg/kg) was “low to medium”, the “aorta (CD68) signal expression” value ([4]; 2 mg/kg) was “low to medium” and the “aorta (CD68) signal expression” value ([4]; 5 mg/kg) was “low to medium”. The “CD68 average optical density” value ([4]; 1 mg/kg gavage QD) was 1.85 ± 1.51 ×10^−2, the “CD68 average optical density” value ([4]; 2 mg/kg gavage QD) was 2.22 ± 0.99 ×10^−2 and the “CD68 average optical density” value ([4]; 5 mg/kg gavage QD) was 2.83 ± 1.40 ×10^−2. The “effect on high-density lipoprotein (HDL-c) level compared with the vehicle group” value [5] was “no obvious effect”, the “effect on low-density lipoprotein (LDL-c) level compared with the vehicle group” value [5] was “significantly reduce” and the “effect on total cholesterol (TCHO) level compared with the vehicle group” value [5] was “significantly reduce”. The “effect on triglyceride (TG) level compared with the vehicle group” value [5] was “significantly reduce”.
